From ChEMBL document CHEMBL1129006, “Orally active inhibitors of stromelysin-1 (MMP-3)” (Bioorg Med Chem Lett, 1996)

Experiments:
[1] = system: Mus musculus; assay: Compound was tested for inhibition of MMP-3 -mediated degradation of radiolabeled transferrin in mouse pleural cavity(PLCAV) at a dose 100 mg/kg administered perorally.; assay type: functional; details: route oral
[2] = target: 72 kDa type IV collagenase (Homo sapiens, UniProt P08253); assay: Inhibition of matrix metalloprotease-2 (MMP-2)
Chain of 72 kDa type IV collagenase (P08253 whole entry): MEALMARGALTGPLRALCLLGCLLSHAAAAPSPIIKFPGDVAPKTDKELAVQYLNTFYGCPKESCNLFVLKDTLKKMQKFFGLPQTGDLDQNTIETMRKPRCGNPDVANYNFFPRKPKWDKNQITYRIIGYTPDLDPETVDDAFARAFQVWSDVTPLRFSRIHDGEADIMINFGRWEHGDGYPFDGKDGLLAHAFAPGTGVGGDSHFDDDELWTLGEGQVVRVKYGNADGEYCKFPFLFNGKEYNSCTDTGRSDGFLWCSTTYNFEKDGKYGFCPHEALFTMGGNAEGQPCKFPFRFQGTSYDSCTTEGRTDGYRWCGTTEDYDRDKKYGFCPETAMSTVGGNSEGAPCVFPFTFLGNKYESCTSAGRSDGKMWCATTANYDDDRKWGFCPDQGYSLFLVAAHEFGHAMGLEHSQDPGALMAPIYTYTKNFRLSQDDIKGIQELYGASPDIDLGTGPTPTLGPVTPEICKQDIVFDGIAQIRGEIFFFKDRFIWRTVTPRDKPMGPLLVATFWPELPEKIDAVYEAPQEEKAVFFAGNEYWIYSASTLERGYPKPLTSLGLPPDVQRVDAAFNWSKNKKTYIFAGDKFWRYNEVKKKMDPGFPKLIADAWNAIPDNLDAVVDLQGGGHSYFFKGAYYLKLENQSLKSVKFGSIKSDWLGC

[3] = target: T1, Interstitial collagenase (Homo sapiens, UniProt P03956); assay: Inhibition of matrix metalloprotease-1 (MMP-1)
T1 sequence (P03956 whole entry): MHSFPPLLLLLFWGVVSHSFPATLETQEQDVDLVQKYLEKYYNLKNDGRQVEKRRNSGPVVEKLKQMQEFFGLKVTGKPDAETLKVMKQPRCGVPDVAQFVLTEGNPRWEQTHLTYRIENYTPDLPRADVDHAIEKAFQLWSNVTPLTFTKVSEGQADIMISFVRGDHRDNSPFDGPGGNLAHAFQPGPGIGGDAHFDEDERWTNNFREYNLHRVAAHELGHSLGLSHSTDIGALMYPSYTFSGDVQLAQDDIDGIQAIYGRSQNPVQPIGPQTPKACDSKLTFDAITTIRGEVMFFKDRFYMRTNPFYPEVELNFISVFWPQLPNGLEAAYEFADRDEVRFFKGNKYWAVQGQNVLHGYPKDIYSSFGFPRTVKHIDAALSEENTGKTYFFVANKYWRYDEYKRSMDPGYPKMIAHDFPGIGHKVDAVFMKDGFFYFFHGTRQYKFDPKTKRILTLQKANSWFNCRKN

[4] = target: Stromelysin-1 (Homo sapiens, UniProt P08254)
Chain of Stromelysin-1 (P08254 whole entry): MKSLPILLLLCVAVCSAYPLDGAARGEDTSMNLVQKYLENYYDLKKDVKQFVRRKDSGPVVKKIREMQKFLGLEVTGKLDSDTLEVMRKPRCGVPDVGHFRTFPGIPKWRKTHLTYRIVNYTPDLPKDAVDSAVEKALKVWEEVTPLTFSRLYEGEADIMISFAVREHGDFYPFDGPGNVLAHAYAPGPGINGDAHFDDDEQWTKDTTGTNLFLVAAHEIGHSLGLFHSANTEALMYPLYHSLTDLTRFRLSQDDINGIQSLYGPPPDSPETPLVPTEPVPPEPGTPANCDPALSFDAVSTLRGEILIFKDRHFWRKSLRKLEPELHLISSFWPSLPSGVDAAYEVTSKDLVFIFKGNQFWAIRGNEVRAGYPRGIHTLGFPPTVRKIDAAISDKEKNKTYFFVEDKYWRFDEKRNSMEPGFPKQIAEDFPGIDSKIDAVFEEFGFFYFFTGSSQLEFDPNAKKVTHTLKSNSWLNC
Description: Inhibition of matrix metalloprotease-3 (MMP-3).

[5] = system: Mus musculus; assay: Compound was tested for inhibition of MMP-3 -mediated degradation of radiolabeled transferrin in mouse pleural cavity(PLCAV) at a dose 30 mg/kg administered intravenously.; assay type: functional; details: route intravenous

Compound | ED50 [1] [mg/kg] | Ki [2] [µM] | Ki [3] [µM] | Ki [4] [µM] | inhibition in vivo at 100 mg/kg [1] [%] | inhibition in vivo at 30 mg/kg [5] [%]
CCCc1ccc(CC[C@H](C[C@H](C)C(=O)O)C(=O)N[C@@H](CC(C)C)C(=O)Nc2ccccc2)cc1 | 32 | 0.31 | > 10 | 0.068 | – | –
CCCc1ccc(CC[C@H](N[C@H](CCCCN2Cc3ccccc3C2=O)C(=O)O)C(=O)N[C@@H](CC(C)C)C(=O)Nc2ccccc2)cc1 | – | 0.11 | 1.6 | 0.0095 | 4 | 81
CCCc1ccc(CC[C@H](C[C@H](CCCCN2Cc3ccccc3C2=O)C(=O)O)C(=O)N[C@@H](CC(C)C)C(=O)Nc2ccccc2)cc1 | – | 0.0057 | > 10 | 0.00036 | 20 | 82
CCCc1ccc(CC[C@H](N[C@H](CCCCN2C(=O)c3ccccc3C2=O)C(=O)O)C(=O)N[C@@H](CC(C)C)C(=O)Nc2ccccc2)cc1 | – | 0.0026 | > 10 | 0.0019 | – | 89
CC(C)C[C@H](NC(=O)[C@H](CCc1ccccc1)N[C@H](C)C(=O)O)C(=O)Nc1ccccc1 [L-696418] | – | – | 0.77 | – | 55 | 50
CC(C)C[C@H](NC(=O)[C@@H](CCC(=O)O)CCc1ccccc1)C(=O)Nc1ccccc1 | – | > 1 | > 10 | 5.8 | – | –
CC(C)C[C@H](NC(=O)[C@H](CCc1ccccc1)NCC(=O)O)C(=O)Nc1ccccc1 | – | 0.47 | 4.62 | 3.6 | – | –
CCCc1ccc(CC[C@H](CCC(=O)O)C(=O)N[C@@H](CC(C)C)C(=O)Nc2ccccc2)cc1 | 47 | 0.22 | > 10 | 0.14 | – | –
CCCc1ccc(CC[C@H](N[C@H](C)C(=O)O)C(=O)N[C@@H](CC(C)C)C(=O)Nc2ccccc2)cc1 | 65 | – | – | – | – | 63
CC(C)C[C@H](NC(=O)[C@H](CCc1ccccc1)N[C@H](CCCCN1C(=O)c2ccccc2C1=O)C(=O)O)C(=O)Nc1ccccc1 | – | – | – | – | 1 | 91
